Test results reported in ChEMBL document CHEMBL1147101, “Development and persistence of antimicrobial resistance in Pseudomonas aeruginosa: a longitudinal observation in mechanically ventilated patients” (Antimicrob Agents Chemother, 2007).
Calls of active or inactive are those of the source. The rule behind the calls is not given here.

How the values were obtained:
Assay type in all cases: functional, organism-based
Conditions in all cases: Trachea
Pseudomonas aeruginosa [1] = test: Antimicrobial activity against Pseudomonas aeruginosa 13E1 tracheal isolates from mechanically ventilated chronic respiratory insufficiency patient
Pseudomonas aeruginosa [2] = test: Antimicrobial activity against Pseudomonas aeruginosa 8A12 tracheal isolates from mechanically ventilated chronic respiratory insufficiency patient
Pseudomonas aeruginosa [3] = test: Antimicrobial activity against Pseudomonas aeruginosa 3D1 tracheal isolates from mechanically ventilated chronic respiratory insufficiency patient
Pseudomonas aeruginosa [4] = test: Antimicrobial activity against Pseudomonas aeruginosa 19D9 tracheal isolates from mechanically ventilated chronic respiratory insufficiency patient
Pseudomonas aeruginosa [5] = test: Antimicrobial activity against Pseudomonas aeruginosa 9B5 tracheal isolates from mechanically ventilated chronic respiratory insufficiency patient
Pseudomonas aeruginosa [6] = test: Antimicrobial activity against Pseudomonas aeruginosa 1A9 tracheal isolates from mechanically ventilated tuberculosis patient
Pseudomonas aeruginosa [7] = test: Antimicrobial activity against Pseudomonas aeruginosa 22C5 tracheal isolates from mechanically ventilated chronic respiratory insufficiency patient
Pseudomonas aeruginosa [8] = test: Antimicrobial activity against Pseudomonas aeruginosa 65.68-2 tracheal isolates from mechanically ventilated tuberculosis patient
Pseudomonas aeruginosa [9] = test: Antimicrobial activity against Pseudomonas aeruginosa 19E9 tracheal isolates from mechanically ventilated chronic respiratory insufficiency patient
Pseudomonas aeruginosa [10] = test: Antimicrobial activity against Pseudomonas aeruginosa 22D9 tracheal isolates from mechanically ventilated chronic respiratory insufficiency patient
Pseudomonas aeruginosa [11] = test: Antimicrobial activity against Pseudomonas aeruginosa 2F6 tracheal isolates from mechanically ventilated tuberculosis patient
Pseudomonas aeruginosa [12] = test: Antimicrobial activity against Pseudomonas aeruginosa 2A7 tracheal isolates from mechanically ventilated tuberculosis patient
Pseudomonas aeruginosa [13] = test: Antimicrobial activity against Pseudomonas aeruginosa 22E1 tracheal isolates from mechanically ventilated chronic respiratory insufficiency patient
Pseudomonas aeruginosa [14] = test: Antimicrobial activity against Pseudomonas aeruginosa 65.36-1 tracheal isolates from mechanically ventilated tuberculosis patient
Pseudomonas aeruginosa [15] = test: Antimicrobial activity against Pseudomonas aeruginosa 22E3 tracheal isolates from mechanically ventilated chronic respiratory insufficiency patient
Pseudomonas aeruginosa [16] = test: Antimicrobial activity against Pseudomonas aeruginosa 9A3 tracheal isolates from mechanically ventilated chronic respiratory insufficiency patient
Pseudomonas aeruginosa [17] = test: Antimicrobial activity against Pseudomonas aeruginosa 13D11 tracheal isolates from mechanically ventilated chronic respiratory insufficiency patient
Pseudomonas aeruginosa [18] = test: Antimicrobial activity against Pseudomonas aeruginosa 65.36-3 tracheal isolates from mechanically ventilated tuberculosis patient
Pseudomonas aeruginosa [19] = test: Antimicrobial activity against Pseudomonas aeruginosa 19B6 tracheal isolates from mechanically ventilated chronic respiratory insufficiency patient
Pseudomonas aeruginosa [20] = test: Antimicrobial activity against Pseudomonas aeruginosa 15H5 tracheal isolates from mechanically ventilated chronic respiratory insufficiency patient
Pseudomonas aeruginosa [21] = test: Antimicrobial activity against Pseudomonas aeruginosa 29G6 tracheal isolates from mechanically ventilated chronic respiratory insufficiency patient
Pseudomonas aeruginosa [22] = test: Antimicrobial activity against Pseudomonas aeruginosa 65.36-4 tracheal isolates from mechanically ventilated tuberculosis patient
Pseudomonas aeruginosa [23] = test: Antimicrobial activity against Pseudomonas aeruginosa 2C2 tracheal isolates from mechanically ventilated tuberculosis patient
Pseudomonas aeruginosa [24] = test: Antimicrobial activity against Pseudomonas aeruginosa 9A10 tracheal isolates from mechanically ventilated chronic respiratory insufficiency patient
Pseudomonas aeruginosa [25] = test: Antimicrobial activity against Pseudomonas aeruginosa 65.38-1 tracheal isolates from mechanically ventilated tuberculosis patient
Pseudomonas aeruginosa [26] = test: Antimicrobial activity against Pseudomonas aeruginosa 24E5 tracheal isolates from mechanically ventilated chronic respiratory insufficiency patient
Pseudomonas aeruginosa [27] = test: Antimicrobial activity against Pseudomonas aeruginosa 65.33-2 tracheal isolates from mechanically ventilated tuberculosis patient
Pseudomonas aeruginosa [28] = test: Antimicrobial activity against Pseudomonas aeruginosa 24G1 tracheal isolates from mechanically ventilated chronic respiratory insufficiency patient
Pseudomonas aeruginosa [29] = test: Antimicrobial activity against Pseudomonas aeruginosa 5G3 tracheal isolates from mechanically ventilated chronic respiratory insufficiency patient
Pseudomonas aeruginosa [30] = test: Antimicrobial activity against Pseudomonas aeruginosa 5H6 tracheal isolates from mechanically ventilated chronic respiratory insufficiency patient
Pseudomonas aeruginosa [31] = test: Antimicrobial activity against Pseudomonas aeruginosa 65.68-4 tracheal isolates from mechanically ventilated tuberculosis patient
Pseudomonas aeruginosa [32] = test: Antimicrobial activity against Pseudomonas aeruginosa P21.23 tracheal isolates from mechanically ventilated tuberculosis patient
Pseudomonas aeruginosa [33] = test: Antimicrobial activity against Pseudomonas aeruginosa 8A2 tracheal isolates from mechanically ventilated chronic respiratory insufficiency patient
Pseudomonas aeruginosa [34] = test: Antimicrobial activity against Pseudomonas aeruginosa 1B9 tracheal isolates from mechanically ventilated tuberculosis patient
Pseudomonas aeruginosa [35] = test: Antimicrobial activity against Pseudomonas aeruginosa 10B1 tracheal isolates from mechanically ventilated chronic respiratory insufficiency patient
Pseudomonas aeruginosa [36] = test: Antimicrobial activity against Pseudomonas aeruginosa 9B2 tracheal isolates from mechanically ventilated chronic respiratory insufficiency patient
Pseudomonas aeruginosa [37] = test: Antimicrobial activity against Pseudomonas aeruginosa 29G8 tracheal isolates from mechanically ventilated chronic respiratory insufficiency patient
Pseudomonas aeruginosa [38] = test: Antimicrobial activity against Pseudomonas aeruginosa 65.33-4 tracheal isolates from mechanically ventilated tuberculosis patient
Pseudomonas aeruginosa [39] = test: Antimicrobial activity against Pseudomonas aeruginosa 8B11 tracheal isolates from mechanically ventilated chronic respiratory insufficiency patient
Pseudomonas aeruginosa [40] = test: Antimicrobial activity against Pseudomonas aeruginosa 8C4 tracheal isolates from mechanically ventilated chronic respiratory insufficiency patient
Pseudomonas aeruginosa [41] = test: Antimicrobial activity against Pseudomonas aeruginosa 65.33-1 tracheal isolates from mechanically ventilated tuberculosis patient
Pseudomonas aeruginosa [42] = test: Antimicrobial activity against Pseudomonas aeruginosa 10A6 tracheal isolates from mechanically ventilated chronic respiratory insufficiency patient
Pseudomonas aeruginosa [43] = test: Antimicrobial activity against Pseudomonas aeruginosa 19B3 tracheal isolates from mechanically ventilated chronic respiratory insufficiency patient
Pseudomonas aeruginosa [44] = test: Antimicrobial activity against Pseudomonas aeruginosa 19C7 tracheal isolates from mechanically ventilated chronic respiratory insufficiency patient
Pseudomonas aeruginosa [45] = test: Antimicrobial activity against Pseudomonas aeruginosa 29G7 tracheal isolates from mechanically ventilated chronic respiratory insufficiency patient
Pseudomonas aeruginosa [46] = test: Antimicrobial activity against Pseudomonas aeruginosa 22D2 tracheal isolates from mechanically ventilated chronic respiratory insufficiency patient
Pseudomonas aeruginosa [47] = test: Antimicrobial activity against Pseudomonas aeruginosa 3E2 tracheal isolates from mechanically ventilated chronic respiratory insufficiency patient
Pseudomonas aeruginosa [48] = test: Antimicrobial activity against Pseudomonas aeruginosa P21.21 tracheal isolates from mechanically ventilated tuberculosis patient
Pseudomonas aeruginosa [49] = test: Antimicrobial activity against Pseudomonas aeruginosa 2A9 tracheal isolates from mechanically ventilated tuberculosis patient
Pseudomonas aeruginosa [50] = test: Antimicrobial activity against Pseudomonas aeruginosa 10A9 tracheal isolates from mechanically ventilated chronic respiratory insufficiency patient
Pseudomonas aeruginosa [51] = test: Antimicrobial activity against Pseudomonas aeruginosa 2A5 tracheal isolates from mechanically ventilated chronic respiratory insufficiency patient
Pseudomonas aeruginosa [52] = test: Antimicrobial activity against Pseudomonas aeruginosa 22D6 tracheal isolates from mechanically ventilated chronic respiratory insufficiency patient
Pseudomonas aeruginosa [53] = test: Antimicrobial activity against Pseudomonas aeruginosa 12B2 tracheal isolates from mechanically ventilated chronic respiratory insufficiency patient
Pseudomonas aeruginosa [54] = test: Antimicrobial activity against Pseudomonas aeruginosa 2A5 tracheal isolates from mechanically ventilated tuberculosis patient
Pseudomonas aeruginosa [55] = test: Antimicrobial activity against Pseudomonas aeruginosa 29F6 tracheal isolates from mechanically ventilated chronic respiratory insufficiency patient
Pseudomonas aeruginosa [56] = test: Antimicrobial activity against Pseudomonas aeruginosa 19E2 tracheal isolates from mechanically ventilated chronic respiratory insufficiency patient
Pseudomonas aeruginosa [57] = test: Antimicrobial activity against Pseudomonas aeruginosa 65.68-1 tracheal isolates from mechanically ventilated tuberculosis patient
Pseudomonas aeruginosa [58] = test: Antimicrobial activity against Pseudomonas aeruginosa 12A7 tracheal isolates from mechanically ventilated chronic respiratory insufficiency patient
Pseudomonas aeruginosa [59] = test: Antimicrobial activity against Pseudomonas aeruginosa 2A3 tracheal isolates from mechanically ventilated tuberculosis patient

CCn1cc(C(=O)O)c(=O)c2cc(F)c(N3CCNCC3)cc21
Activity (Pseudomonas aeruginosa [1]): Active
Activity (Pseudomonas aeruginosa [2]): Active
Activity (Pseudomonas aeruginosa [3]): Active
Activity (Pseudomonas aeruginosa [4]): inactive
Activity (Pseudomonas aeruginosa [5]): Active
Activity (Pseudomonas aeruginosa [6]): Active
Activity (Pseudomonas aeruginosa [7]): Active
Activity (Pseudomonas aeruginosa [8]): Active
Activity (Pseudomonas aeruginosa [9]): Active
Activity (Pseudomonas aeruginosa [10]): Active
Activity (Pseudomonas aeruginosa [11]): Active
Activity (Pseudomonas aeruginosa [12]): Active
Activity (Pseudomonas aeruginosa [13]): Active
Activity (Pseudomonas aeruginosa [14]): Active
Activity (Pseudomonas aeruginosa [15]): Active
Activity (Pseudomonas aeruginosa [16]): Active
Activity (Pseudomonas aeruginosa [17]): Active
Activity (Pseudomonas aeruginosa [18]): Active
Activity (Pseudomonas aeruginosa [19]): Active
Activity (Pseudomonas aeruginosa [20]): Active
Activity (Pseudomonas aeruginosa [21]): Active
Activity (Pseudomonas aeruginosa [22]): Active
Activity (Pseudomonas aeruginosa [23]): Active
Activity (Pseudomonas aeruginosa [24]): Active
Activity (Pseudomonas aeruginosa [25]): Active
Activity (Pseudomonas aeruginosa [26]): Active
Activity (Pseudomonas aeruginosa [27]): Active
Activity (Pseudomonas aeruginosa [28]): Active
Activity (Pseudomonas aeruginosa [29]): Active
Activity (Pseudomonas aeruginosa [30]): Active
Activity (Pseudomonas aeruginosa [31]): Active
Activity (Pseudomonas aeruginosa [32]): Active
Activity (Pseudomonas aeruginosa [33]): Active
Activity (Pseudomonas aeruginosa [34]): Active
Activity (Pseudomonas aeruginosa [35]): Active
Activity (Pseudomonas aeruginosa [36]): Active
Activity (Pseudomonas aeruginosa [37]): Active
Activity (Pseudomonas aeruginosa [38]): Active
Activity (Pseudomonas aeruginosa [39]): Active
Activity (Pseudomonas aeruginosa [40]): Active
Activity (Pseudomonas aeruginosa [41]): Active
Activity (Pseudomonas aeruginosa [42]): Active
Activity (Pseudomonas aeruginosa [43]): Active
Activity (Pseudomonas aeruginosa [44]): Active
Activity (Pseudomonas aeruginosa [45]): Active
Activity (Pseudomonas aeruginosa [46]): Active
Activity (Pseudomonas aeruginosa [47]): Active
Activity (Pseudomonas aeruginosa [48]): Active
Activity (Pseudomonas aeruginosa [49]): Active
Activity (Pseudomonas aeruginosa [50]): Active
Activity (Pseudomonas aeruginosa [51]): Active
Activity (Pseudomonas aeruginosa [52]): Active
Activity (Pseudomonas aeruginosa [53]): Active
Activity (Pseudomonas aeruginosa [54]): Active
Activity (Pseudomonas aeruginosa [55]): Active
Activity (Pseudomonas aeruginosa [56]): Active
Activity (Pseudomonas aeruginosa [57]): Active
Activity (Pseudomonas aeruginosa [58]): Active
Activity (Pseudomonas aeruginosa [59]): Active
